Data: patent US11084814B2, “Pyrido[3, 4-d]pyrimidine derivative and pharmaceutically acceptable salt thereof” (Teijin Pharma Limited, priority 2016, dated 2021)
pIC50: −log10 of the molar value.

How the values were obtained:
CDK4/cyclin D3 = biological target: T1, CDK4/cyclin D3 (Homo sapiens, UniProt P11802); test: Human CDK4/cyclin D3 inhibitory activity (QS S Assist CDK4/Cyclin D3_FP Kit, IMAP fluorescent polarization); type: biochemical; details: read-out: CDK4 Activity symbol
T1 construct: purchased Carna Biosciences, Inc. QS S Assist CDK4/Cyclin D3_FP Kit
Outline: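 Kinase reactions used kit CDK4/cyclin D3 at 12.5–25 ng/well with the kit ATP/substrate/metal mix in 20 mM HEPES (pH 7.4), 0.01% Tween20 and 2 mM DTT, run 45 min at room temperature. Phosphorylation was detected by IMAP fluorescence polarization (ex 485/em 535 nm) after 30 min binding in the dark. IC50 was fitted from percent inhibition against DMSO controls with and without enzyme.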

CDK2/cyclin A2 = biological target: T2, CDK2/cyclin A2 (Homo sapiens, UniProt P24941); test: Human CDK2/cyclin A2 inhibitory activity (QS S Assist CDK2/Cyclin A2_FP Kit, IMAP fluorescent polarization); type: biochemical; details: read-out: CDK2 Activity symbol
T2 construct: purchased Carna Biosciences, Inc. QS S Assist CDK2/Cyclin A2_FP Kit
Outline: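 Kit CDK2/cyclin A2 (2.5 ng/well) was reacted with kit ATP/substrate/metal in 20 mM HEPES pH 7.4, 0.01% Tween 20 and 2 mM DTT for 60 min at room temperature. IMAP binding reagent was added for 30 min, then fluorescence polarization was read at 485/535 nm. IC50 came from dose-response fitting of percent inhibition.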

T1 sequence (P11802 whole entry): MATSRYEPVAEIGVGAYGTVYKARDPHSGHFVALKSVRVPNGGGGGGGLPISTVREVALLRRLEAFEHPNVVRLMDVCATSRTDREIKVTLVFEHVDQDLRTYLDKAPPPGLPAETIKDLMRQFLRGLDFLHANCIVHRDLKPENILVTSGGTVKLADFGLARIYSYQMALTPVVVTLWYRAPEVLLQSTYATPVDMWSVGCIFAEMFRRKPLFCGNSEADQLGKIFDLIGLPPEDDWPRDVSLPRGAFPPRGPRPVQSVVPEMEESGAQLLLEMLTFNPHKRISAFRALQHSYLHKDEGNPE
T1 sequence (P30281 whole entry partner): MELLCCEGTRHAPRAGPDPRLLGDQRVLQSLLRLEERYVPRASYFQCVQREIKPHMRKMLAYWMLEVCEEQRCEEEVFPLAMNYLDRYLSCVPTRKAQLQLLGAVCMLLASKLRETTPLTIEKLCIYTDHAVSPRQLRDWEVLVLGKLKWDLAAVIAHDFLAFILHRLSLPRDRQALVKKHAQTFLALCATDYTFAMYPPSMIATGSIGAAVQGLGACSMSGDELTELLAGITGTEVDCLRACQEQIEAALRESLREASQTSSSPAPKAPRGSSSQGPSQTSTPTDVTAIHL

SMILES	pIC50 (CDK4/cyclin D3)	pIC50 (CDK2/cyclin A2)
C[C@@H](O)c1cc2cnc(Nc3ccc4c(n3)CCN(C(=O)[C@@H]3CCCCN3C)C4)nc2c(N2C3CCC2CC3)n1 [Compound 237]	> 8.00	≤ 7.00
CC(O)c1cc2cnc(Nc3ccc4c(n3)CCN(C(=O)C3CCCCN3C)C4)nc2c(N2C3CCC2CC3)n1 (stereo not shown) [Compound 238]	> 8.00	≤ 7.00
C[C@@H](O)c1cc2cnc(Nc3ccc4c(n3)CCN(C(=O)C3CN(C)C3)C4)nc2c(N2C3CCC2CC3)n1 [Compound 239]	> 8.00	≤ 7.00
C[C@@H](O)c1cc2cnc(Nc3ccc4c(n3)CCN(C3CN(C)C3)C4)nc2c(N2C3CCC2CC3)n1 [Compound 240]	> 8.00	≤ 7.00
C[C@@H](O)c1cc2cnc(Nc3ccc(O[C@H]4CCCNC4)cn3)nc2c(N2CCCCC2)n1 [Compound 241]	> 8.00	≤ 7.00
CC(O)c1cc2cnc(Nc3ccc(OC4CCCNC4)cn3)nc2c(N2C3CCC2CC3)n1 (stereo not shown) [Compound 242]	> 8.00	≤ 7.00
C[C@@H](O)c1cc2cnc(Nc3ccc(OC4CCNCC4)cn3)nc2c(N2CCC[C@H](F)C2)n1 [Compound 243]	> 8.00	≤ 7.00
O=C1CCNCCN1c1ccc(Nc2ncc3cc(CO)nc(N4CCCCC4)c3n2)nc1 [Compound 244]	> 8.00	≤ 7.00
CC[C@@H](O)c1cc2cnc(Nc3ccc(N4CCNCC4=O)cn3)nc2c(N2CCC[C@H]2C)n1 [Compound 245]	> 8.00	≤ 7.00
CC[C@H](O)c1cc2cnc(Nc3ccc(N4CCNCC4=O)cn3)nc2c(N2CCC[C@H]2C)n1 [Compound 246]	> 8.00	≤ 7.00
CC[C@@H](O)c1cc2cnc(Nc3ccc(CN4CCN(CCO)CC4)cn3)nc2c(N2CCC[C@H]2C)n1 [Compound 247]	> 8.00	≤ 7.00
CC[C@H](O)c1cc2cnc(Nc3ccc(CN4CCN(CCO)CC4)cn3)nc2c(N2CCC[C@H]2C)n1 [Compound 248]	> 8.00	≤ 7.00
C[C@@H](O)c1cc2cnc(Nc3ccc(CN4CCN(CCO)C(=O)C4)cn3)nc2c(N2CCCCC2)n1 [Compound 249]	7.00 to 8.00	≤ 7.00
C[C@@H](O)c1cc2cnc(Nc3ccc(O[C@H]4CCCNC4)cn3)nc2c(N2CC[C@@H](F)C2)n1 [Compound 250]	> 8.00	≤ 7.00
C[C@@H](O)c1cc2cnc(Nc3ccc(O[C@H]4CCCNC4)cn3)nc2c(N2CCC[C@H](F)C2)n1 [Compound 251]	> 8.00	≤ 7.00
C[C@@H](O)c1cc2cnc(Nc3ccc(O[C@H]4CCCN(CCO)C4)cn3)nc2c(N2CCCCC2)n1 [Compound 252]	> 8.00	≤ 7.00
C[C@@H](O)c1cc2cnc(Nc3ccc(O[C@H]4CCCN(CCO)C4)cn3)nc2c(N2C3CCC2CC3)n1 [Compound 253]	> 8.00	≤ 7.00
C[C@@H](O)c1cc2cnc(Nc3ccc(O[C@H]4CCCN(CCO)C4)cn3)nc2c(N2CC[C@@H](F)C2)n1 [Compound 254]	> 8.00	≤ 7.00
C[C@@H](O)c1cc2cnc(Nc3ccc(O[C@H]4CCCN(CCO)C4)cn3)nc2c(N2CCC[C@H](F)C2)n1 [Compound 255]	> 8.00	≤ 7.00

SMILES	pIC50 (CDK4/cyclin D3)	pIC50 (CDK2/cyclin A2)
C[C@@H](O)c1cc2cnc(Nc3ccc(N4CCNCC4=O)cn3)nc2c(N2C3CCC2CC3)n1 [Compound 256]	> 8.00	≤ 7.00
C[C@H]1CCN(c2nc([C@@H](C)O)cc3cnc(Nc4ccc(N5CCNCC5=O)cn4)nc23)C1 [Compound 257]	> 8.00	≤ 7.00
C[C@H]1CCN(c2nc([C@@H](C)O)cc3cnc(Nc4ccc(N5CCCNCC5=O)cn4)nc23)C1 [Compound 258]	> 8.00	≤ 7.00
C[C@@H](O)c1cc2cnc(Nc3ccc(N4CCN(CCS(C)(=O)=O)CCC4=O)cn3)nc2c(N2CCCCC2)n1 [Compound 259]	> 8.00	≤ 7.00
Cc1nc(Nc2ncc3cc([C@@H](C)O)nc(N4CCCCC4)c3n2)ccc1N1CCNCC1=O [Compound 260]	> 8.00	≤ 7.00
Cc1nc(Nc2ncc3cc([C@@H](C)O)nc(N4CC[C@H](C)C4)c3n2)ccc1N1CCNCC1=O [Compound 261]	> 8.00	≤ 7.00
C[C@@H](O)c1cc2cnc(Nc3ccc4c(n3)CCN(C(=O)CN3CCC(O)CC3)C4)nc2c(N2C3CCC2CC3)n1 [Compound 262]	> 8.00	≤ 7.00
C[C@@H](O)c1cc2cnc(Nc3ccc4c(n3)CCN(C(=O)CN3CCN(CCO)CC3)C4)nc2c(N2C3CCC2CC3)n1 [Compound 263]	> 8.00	≤ 7.00
C[C@@H](O)c1cc2cnc(Nc3ccc4c(n3)CCN(C(=O)CN3CCN(C)CC3)C4)nc2c(N2C3CCC2CC3)n1 [Compound 264]	> 8.00	≤ 7.00
C[C@@H](O)c1cc2cnc(Nc3ccc4c(n3)CCN(C(=O)CN3CC5(CN(C)C5)C3)C4)nc2c(N2C3CCC2CC3)n1 [Compound 265]	> 8.00	≤ 7.00
C[C@@H](O)c1cc2cnc(Nc3ccc4c(n3)CCN(C(=O)CN3CC5(COC5)C3)C4)nc2c(N2CCCCC2)n1 [Compound 266]	> 8.00	≤ 7.00
C[C@@H](O)c1cc2cnc(Nc3ccc4c(n3)CCN(C(=O)CN3CC5(CC(O)C5)C3)C4)nc2c(N2C3CCC2CC3)n1 [Compound 267]	> 8.00	≤ 7.00
C[C@@H](O)c1cc2cnc(Nc3ccc4c(n3)CCN(C(=O)CN3CC5(CC(O)C5)C3)C4)nc2c(N2CCCCC2)n1 [Compound 268]	> 8.00	≤ 7.00
C[C@@H](O)c1cc2cnc(Nc3ccc4c(n3)CCN(C(=O)CN3CC(F)C3)C4)nc2c(N2CCCCC2)n1 [Compound 269]	> 8.00	≤ 7.00
C[C@@H](O)c1cc2cnc(Nc3ccc4c(n3)CCN(C(=O)CN3CCC3)C4)nc2c(N2CCCCC2)n1 [Compound 270]	> 8.00	≤ 7.00
C[C@@H](O)c1cc2cnc(Nc3ccc(CN4CCN(CCO)CC4)cn3)nc2c(N2CCC(C#N)CC2)n1 [Compound 271]	> 8.00	≤ 7.00
C[C@@H](O)c1cc2cnc(Nc3ccc(N4CCNCC4=O)cn3)nc2c(N2CCC(C#N)CC2)n1 [Compound 272]	> 8.00	≤ 7.00
C[C@@H](O)c1cc2cnc(Nc3ccc(N4CCNCC4)nn3)nc2c(N2CCC(C#N)CC2)n1 [Compound 273]	> 8.00	≤ 7.00
C[C@@H](O)c1cc2cnc(Nc3ccc4c(n3)CCNC4)nc2c(N2CCC(C#N)CC2)n1 [Compound 274]	> 8.00	≤ 7.00

SMILES	pIC50 (CDK4/cyclin D3)	pIC50 (CDK2/cyclin A2)
OCCN1CCN(Cc2ccc(Nc3ncc4cc(C5COC5)nc(N5CCCCC5)c4n3)nc2)CC1 [Compound 275]	> 8.00	≤ 7.00
O=C1CCNCCN1c1ccc(Nc2ncc3cc(C4COC4)nc(N4CCCCC4)c3n2)nc1 [Compound 276]	> 8.00	≤ 7.00
c1cc(N2CCNCC2)nnc1Nc1ncc2cc(C3COC3)nc(N3CCCCC3)c2n1 [Compound 277]	7.00 to 8.00	≤ 7.00
C[C@@H](O)c1cc2cnc(Nc3ccc4c(n3)CCN(CCO)C4)nc2c(N2CCC(C#N)CC2)n1 [Compound 278]	> 8.00	≤ 7.00
C[C@@H](O)c1cc2cnc(Nc3ccc4c(n3)CCN(C3CN(C)C3)C4)nc2c(N2CCC(C#N)CC2)n1 [Compound 279]	> 8.00	≤ 7.00
CC(O)c1cc2cnc(Nc3ccc4c(n3)CC3CCC4N3CCO)nc2c(N2CCCCC2)n1 (stereo not shown) [Compound 280]	7.00 to 8.00	≤ 7.00
C[C@@H](O)c1cc2cnc(Nc3ccc(N4CCNCC4=O)cn3)nc2c(N2C3CCCC2CC3)n1 [Compound 281]	> 8.00	≤ 7.00
C[C@@H](O)c1cc2cnc(Nc3ccc4c(n3)CCN(C3CCOCC3)C4)nc2c(N2CCCCC2)n1 [Compound 282]	> 8.00	≤ 7.00
C[C@@H](O)c1cc2cnc(Nc3ccc4c(n3)CCN([C@H]3CC[C@H](O)CC3)C4)nc2c(N2CCCCC2)n1 [Compound 283]	7.00 to 8.00	≤ 7.00
C[C@@H](O)c1cc2cnc(Nc3ccc4c(n3)CCN([C@H]3CC[C@@H](O)CC3)C4)nc2c(N2CCCCC2)n1 [Compound 284]	7.00 to 8.00	≤ 7.00
C[C@@H](O)c1cc2cnc(Nc3ccc4c(n3)CCN(C(=O)Cc3ccncc3)C4)nc2c(N2CCCCC2)n1 [Compound 285]	7.00 to 8.00	≤ 7.00
C[C@@H](O)c1cc2cnc(Nc3ccc4c(n3)CCN(C(=O)Cn3ccnc3)C4)nc2c(N2CCCCC2)n1 [Compound 286]	> 8.00	≤ 7.00
C[C@@H](O)c1cc2cnc(Nc3ccc(N4CCNCC4)cn3)nc2c(N2CCOC[C@@H]2C)n1 [Compound 288]	> 8.00	≤ 7.00
CC(O)c1cc2cnc(Nc3ccc(N4CCNCC4)cn3)nc2c(N2CCOCC2C)n1 (stereo not shown) [Compound 289]	> 8.00	≤ 7.00
C[C@@H](O)c1cc2cnc(Nc3ccc(CN4CCN(C)CC4)cn3)nc2c(N2CCOC[C@@H]2C)n1 [Compound 290]	> 8.00	≤ 7.00
CC(O)c1cc2cnc(Nc3ccc(CN4CCN(C)CC4)cn3)nc2c(N2C3CCC2COC3)n1 (stereo not shown) [Compound 292]	> 8.00	≤ 7.00
C[C@@H](O)c1cc2cnc(Nc3ccc(CN4CCN(CCO)CC4)cn3)nc2c(N2CCOC[C@@H]2C)n1 [Compound 293]	7.00 to 8.00	≤ 7.00
CC(O)c1cc2cnc(Nc3ccc(CN4CCN(CCO)CC4)cn3)nc2c(N2CCOCC2C)n1 (stereo not shown) [Compound 294]	> 8.00	≤ 7.00
